Laboratory results published in US20240226125A1, “USE OF SOTAGLIFLOZIN FOR THE TREATMENT OF PATIENTS WITH TYPE 1 DIABETES MELLITUS” (priority 2019, published 2024).

Experiments:
[1] = tested on: adult patients with Type 1 Diabetes Mellitus who have inadequate glycemic control with insulin therapy; experiment: inTandem 1 and inTandem 2 pooled double-blind placebo-controlled clinical studies, efficacy; format: in vivo, human; details: for 2-hour postprandial plasma glucose (mg/dL) LS Mean change (SE) / A1C (%) LS Mean change (SE) / Body weight (kg) LS Mean change (SE) / DDS2 (score) LS Mean change (SE) / DTSQ (score) LS Mean change (SE) / Fasting plasma glucose (mg/dL) LS Mean change (SE) / SBP (mmHg) LS Mean change (SE) / Time in range (%) LS Mean change (SE): 400 mg; for HbA1c change from Baseline, Week 24 Treatment Comparison, LS Mean / HbA1c change from Baseline, Week 52 Treatment Comparison, LS Mean: optimized insulin
[2] = tested on: patients with type 1 diabetes; details: phase II trials; cited from earlier work
[3] = 400 mg vs placebo, Baseline BMI ≥27 kg/m^2, Week 24
[4] = 400 mg vs placebo, Baseline BMI ≥27 kg/m^2, Week 52
[5] = Baseline BMI <27 kg/m^2, Week 24
[6] = Baseline BMI <27 kg/m^2, Week 52
[7] = Baseline BMI ≥27 kg/m^2, Week 24
[8] = Baseline BMI ≥27 kg/m^2, Week 52

CCOc1ccc(Cc2cc([C@@H]3O[C@H](SC)[C@@H](O)[C@H](O)[C@H]3O)ccc2Cl)cc1 [sotagliflozin, (2S,3R,4R,5S,6R)-2-(4-chloro-3-(4-ethoxybenzyl)phenyl)-6-(methylthio)tetrahydro-2H-pyran-3,4,5-triol]
2-hour postprandial plasma glucose (mg/dL) LS Mean Difference (SE) [1, 3]: −21.7 (13.93) mg/dL | A1C (%) LS Mean Difference (SE) [1, 3]: −0.45 (0.045) % | Body weight (kg) LS Mean Difference (SE) [1, 3]: −3.32 (0.270) kg | DDS2 (score) LS Mean Difference (SE) [1, 3]: −0.7 (0.13) score | DTSQ (score) LS Mean Difference (SE) [1, 3]: 2.6 (0.35) score | Fasting plasma glucose (mg/dL) LS Mean Difference (SE) [1, 3]: −25.0 (4.53) mg/dL | SBP (mmHg) LS Mean Difference (SE) [1, 3]: −2.5 (0.87) mmHg | Time in range (%) LS Mean Difference (SE) [1, 3]: 15.051 (2.8562) % | A1C (%) LS Mean Difference (SE) [1, 4]: −0.38 (0.055) % | Body weight (kg) LS Mean Difference (SE) [1, 4]: −4.46 (0.353) kg | SBP (mmHg) LS Mean Difference (SE) [1, 4]: −3.6 (0.89) mmHg | 2-hour postprandial plasma glucose (mg/dL) LS Mean change (SE) [1, 5]: −69.6 (17.34) mg/dL | A1C (%) LS Mean change (SE) [1, 5]: −0.34 (0.048) % | Body weight (kg) LS Mean change (SE) [1, 5]: −1.91 (0.181) kg | DDS2 (score) LS Mean change (SE) [1, 5]: −0.4 (0.13) score | DTSQ (score) LS Mean change (SE) [1, 5]: 1.5 (0.33) score | Fasting plasma glucose (mg/dL) LS Mean change (SE) [1, 5]: −11.5 (4.32) mg/dL | SBP (mmHg) LS Mean change (SE) [1, 5]: −3.4 (0.75) mmHg | Time in range (%) LS Mean change (SE) [1, 5]: 4.164 (2.9683) % | A1C (%) LS Mean change (SE) [1, 6]: −0.20 (0.057) % | Body weight (kg) LS Mean change (SE) [1, 6]: −1.72 (0.238) kg | SBP (mmHg) LS Mean change (SE) [1, 6]: −1.0 (0.81) mmHg | 2-hour postprandial plasma glucose (mg/dL) LS Mean change (SE) [1, 7]: −39.5 (10.72) mg/dL | A1C (%) LS Mean change (SE) [1, 7]: −0.50 (0.034) % | Body weight (kg) LS Mean change (SE) [1, 7]: −2.98 (0.193) kg | DDS2 (score) LS Mean change (SE) [1, 7]: −0.5 (0.10) score | DTSQ (score) LS Mean change (SE) [1, 7]: 2.2 (0.26) score | Fasting plasma glucose (mg/dL) LS Mean change (SE) [1, 7]: −18.6 (3.28) mg/dL | SBP (mmHg) LS Mean change (SE) [1, 7]: −4.0 (0.64) mmHg | Time in range (%) LS Mean change (SE) [1, 7]: 13.133 (2.0244) % | A1C (%) LS Mean change (SE) [1, 8]: −0.38 (0.040) % | Body weight (kg) LS Mean change (SE) [1, 8]: −3.61 (0.249) kg | SBP (mmHg) LS Mean change (SE) [1, 8]: −3.2 (0.65) mmHg | Weight, Percent Change from Baseline at Week 24, Treatment Comparison vs. PBO LS Mean (SE) ([1]; SOTA 200 mg vs PBO, Week 24): −2.17 (0.188), p < 0.001% | HbA1c change from Baseline, Week 24 Treatment Comparison, LS Mean ([1]; SOTA 200 mg vs PBO, Week 24): −0.36% | No Weight Gain at Week 52, HbA1c <7.0%: Absolute difference in % (SOTA vs. PBO) ([1]; SOTA 200 mg vs PBO, Week 52): 12.6% | No Weight Gain at Week 52, reduction in HbA1c ≥0.5%: Absolute difference in % (SOTA vs. PBO) ([1]; SOTA 200 mg vs PBO, Week 52): 14.9% | Weight, Percent Change from Baseline at Week 52, Treatment Comparison vs. PBO LS Mean (SE) ([1]; SOTA 200 mg vs PBO, Week 52): −3.21 (0.291), p < 0.001% | HbA1c change from Baseline, Week 52 Treatment Comparison, LS Mean ([1]; SOTA 200 mg vs PBO, Week 52): −0.23% | Weight, Percent Change (%) from Baseline at Week 24, LS Mean (SE) ([1]; SOTA 200 mg, Week 24): −1.70 (0.137), p < 0.001% | No Weight Gain at Week 52: Percentage HbA1c <7.0% ([1]; SOTA 200 mg, Week 52): 21.8% | No Weight Gain at Week 52: Percentage with absolute reduction in HbA1c ≥0.5% ([1]; SOTA 200 mg, Week 52): 23.7% | Weight, Percent Change (%) from Baseline at Week 52, LS Mean (SE) ([1]; SOTA 200 mg, Week 52): −2.31 (0.208), p < 0.001% | Weight, Percent Change from Baseline at Week 24, Treatment Comparison vs. PBO LS Mean (SE) ([1]; SOTA 400 mg vs PBO, Week 24): −3.02 (0.188), p < 0.001% | HbA1c change from Baseline, Week 24 Treatment Comparison, LS Mean ([1]; SOTA 400 mg vs PBO, Week 24): −0.38% | No Weight Gain at Week 52, HbA1c <7.0%: Absolute difference in % (SOTA vs. PBO) ([1]; SOTA 400 mg vs PBO, Week 52): 17.0% | No Weight Gain at Week 52, reduction in HbA1c ≥0.5%: Absolute difference in % (SOTA vs. PBO) ([1]; SOTA 400 mg vs PBO, Week 52): 20.0% | Weight, Percent Change from Baseline at Week 52, Treatment Comparison vs. PBO LS Mean (SE) ([1]; SOTA 400 mg vs PBO, Week 52): −4.24 (0.291), p < 0.001% | HbA1c change from Baseline, Week 52 Treatment Comparison, LS Mean ([1]; SOTA 400 mg vs PBO, Week 52): −0.32% | Weight, Percent Change (%) from Baseline at Week 24, LS Mean (SE) ([1]; SOTA 400 mg, Week 24): −2.55 (0.137), p < 0.001% | No Weight Gain at Week 52: Percentage HbA1c <7.0% ([1]; SOTA 400 mg, Week 52): 26.1% | No Weight Gain at Week 52: Percentage with absolute reduction in HbA1c ≥0.5% ([1]; SOTA 400 mg, Week 52): 28.8% | Weight, Percent Change (%) from Baseline at Week 52, LS Mean (SE) ([1]; SOTA 400 mg, Week 52): −3.33 (0.209), p < 0.001% | efficacy of sotagliflozin versus placebo by BMI subgroup ([1]; Week 24, BMI ≥27 kg/m^2 subgroups, A1C, body weight, time in range, DTSQ, DDS2): more pronounced | A1C levels compared to placebo (primary endpoint) ([1]; both doses, after core treatment period and long-term extension period): statistically significant lower A1C levels | glycemic control (reduction in A1C) [2]: significantly improve glycemic control
